Tests used:
CD34+ cells [1] = assay: Ex vivo expansion of purified CD34+ cells in liquid culture: cell enumeration and FACS of subsets; assay type: cell-based, human; conditions: three weeks, 5, 10 or 20 μM
Description: Sample collection and processing: Samples were obtained from umbilical human cord blood and processed within 12 hours. The blood cells were mixed with 3% Gelatin (Gigma, St. Louis, Mo.) and allowed to sediment for 30 minutes to remove most red blood cells. The leukocyte-rich fraction was harvested, layered on Ficoll-Hypaque (density 1.077 gram/ml; Sigma) and centrifuged at 400 g for 30 minutes at room temperature. The mononuclear cells in the interface layer were then collected, washed three times in phosphate-buffered saline (PBS; Biological Industries), and re-suspended in PBS solution which contains 1% bovine serum albumin (BSA; Sigma). The cells were then incubated at 4° C. for 30 minutes with murine monoclonal anti CD34^+ antibody (0.5 μg/10^6 mononuclear cells) and were thereafter isolated using two cycles of immuno-magnetic separation using the miniMACS CD34^+ Progenitor Cell Isolation Kit (Miltenyi-Biotec, Auburn, Calif.) according to the manufacturer's recommendations. The purity of the CD34^+ cells obtained ranged between 95% and 98%, based on Flow Cytometry evaluation (see below). Ex vivo expansion of progenitor cells: Enriched CD34^+ cell fractions were cultures in 24-well Costar Cell Culture Clusters (Corning Inc., Corning, N.Y.) or in Culture Bags (American Fluoroseal Corp.) with alpha minimal essential medium supplemented with 10% fetal bovine serum (FBS, Biological Industries), at about 1-3×10^4 cells/ml medium. The media were further supplemented with the following human recombinant cytokines (all obtained from Perpo Tech, Inc., Rocky Hill, N.J.): Thrombopoietin (TPO), 50 ng/ml; interleukin 6 (IL-6), 50 ng/ml; FLT-3 ligand, 50 ng/ml; and IL-3, 20 ng/ml. The cultures were incubated at 37° C. in an atmosphere of 5% CO2 in air with extra humidity. At weekly intervals cell cultures were semi-depopulated and supplemented with fresh medium containing the cytokines. Following different incubation periods, the cells were harvested, stained with trypan blue and enumerated. The total cell counts, numbers of CD34^+ cells and subsets thereof, and the number of colony-forming cells (CFU) are presented herein as cumulative numbers, with the assumption that the cultures had not been passaged, namely, the numbers of cells per ml were multiplied by the number of passages performed. Surface antigen analysis: At different time intervals, the cultured cells were harvested, washed with a PBS solution containing 1% BSA and 0.1% sodium azide (Sigma), and stained, at 4° C. for 60 minutes, with FITC-labeled anti CD45 monoclonal antibody and either PE-labeled anti CD34 (HPCA-2) monoclonal or PE-labeled control mouse Ig (all from Immunoquality Products, the Netherlands). The cells were then washed with the same PBS solution and were analyzed by a flow cytometer, as described hereinafter. Flow cytometry analysis: Cells were analyzed and sorted using FACS caliber flow cytometer (Becton-Dickinson, Immunofluorometry systems, Mountain View, Calif.). Cells were passed at a rate of 1,000 cells/second through a 70 μm nozzle, using a saline sheath fluid. A 488 nm argon laser beam at 250 mW served as the light source for excitation. Fluorescence emission of ten thousand cells was measured using a logarithmic amplification and analyzed using CellQuest software. Determination of the density of stem and progenitor subset populations following expansion: Following an incubation period, the CD34^+ cells were re-selected using miniMACS Miltenyi kit. The purity of the positive fraction of selected CD34^+ cells was confirmed by FACS analysis as well as by cell morphology analysis. The density of CD34^+ cells, in proportion (percentage) to total cells, was determined directly via FACS analysis. The densities of CD34^+ subset populations were determined from the purified CD34^+ fraction. Re-selected CD34^+ cells were stained with lineage specific antigens followed by FACS analysis to determine the percentage of the subset populations within the total number of CD34^+ cells. […]

CD34+ cells [2] = assay: Self-renewal potential: colony-forming cells (CFU) from CD34+ cultures; assay type: cell-based, human; conditions: five-weeks culture; 10 or 20 μM, added first three weeks; FIG. 9
Description: Ex vivo expansion of progenitor cells: Enriched CD34^+ cell fractions were cultures in 24-well Costar Cell Culture Clusters (Corning Inc., Corning, N.Y.) or in Culture Bags (American Fluoroseal Corp.) with alpha minimal essential medium supplemented with 10% fetal bovine serum (FBS, Biological Industries), at about 1-3×10^4 cells/ml medium. The media were further supplemented with the following human recombinant cytokines (all obtained from Perpo Tech, Inc., Rocky Hill, N.J.): Thrombopoietin (TPO), 50 ng/ml; interleukin 6 (IL-6), 50 ng/ml; FLT-3 ligand, 50 ng/ml; and IL-3, 20 ng/ml. The cultures were incubated at 37° C. in an atmosphere of 5% CO2 in air with extra humidity. At weekly intervals cell cultures were semi-depopulated and supplemented with fresh medium containing the cytokines. Following different incubation periods, the cells were harvested, stained with trypan blue and enumerated. The total cell counts, numbers of CD34^+ cells and subsets thereof, and the number of colony-forming cells (CFU) are presented herein as cumulative numbers, with the assumption that the cultures had not been passaged, namely, the numbers of cells per ml were multiplied by the number of passages performed. Self-renewal potential evaluations: The self-renewal potential of stem cells was determined in vitro by long-term colony formation. Cells were washed and seeded in a semi-solid methylcellulose medium supplemented with 2 IU/ml erythropoietin ([…] Int., Switzerland), stem cell factor and IL-3, both at 20 ng/ml (Perpo Tech), and G-CSF and GM-CSF, both at 10 ng/ml (Perpo Tech). The resulting colonies were scored after two weeks of incubation at 37° C. in a humidified atmosphere of 5% CO2 in air. Colonies were classified as blast, mixed, erythroid, myeloid, and megakaryocytic, according to their cellular composition.

SMILES: [Cl][Cu][Cl] [copper chloride, reference compound]
- number of total cells vs untreated control (CD34+ cells [1]; FIG. 8a): did not differ significantly
- stem cells (CD34+) vs untreated or chelate-treated cultures (CD34+ cells [1]; FIG. 8b): fewer
- CD34+ CD38− stem/progenitor subset cells vs untreated or chelate-treated cultures (CD34+ cells [1]; FIG. 8c): fewer
- CD34+ Lin− stem/progenitor subset cells vs untreated or chelate-treated cultures (CD34+ cells [1]; FIG. 8d): fewer
- colony-forming cells of CD34+ vs untreated or TEPA-Cu treated cultures (CD34+ cells [2]): substantially fewer

From patent US7655225B2, “Methods of expanding stem and progenitor cells and expanded cell populations obtained thereby” (Gamida Cell, Ltd., priority 2002, dated 2010)
